Measurements published in patent US4396613A, “23-Ester derivatives of DMT and method of using same” (Eli Lilly and Company, priority 1981, dated 1983).
Converted amounts (≈) assume the structure as drawn.

Assays:
Assay type in all cases: cell-based
[1] = system: Haemophilus influenzae Holt; assay: standard agar-dilution assay (MIC); settings: ampicillin-sensitive strain, unit assumed
Protocol: (§1) The MIC's in Table II were determined by standard agar-dilution assays. The MIC's in Table III were obtained using a conventional broth-dilution microtiter test.

[2] = system: Streptococcus pyogenes C203; assay: standard agar-dilution assay (MIC); settings: unit assumed
Protocol: as §1

[3] = system: Staphylococcus aureus S13E; assay: standard agar-dilution assay (MIC); settings: unit assumed
Protocol: as §1

[4] = system: Staphylococcus aureus X1.1; assay: standard agar-dilution assay (MIC); settings: unit assumed
Protocol: as §1

[5] = system: Streptococcus Group D X66; assay: standard agar-dilution assay (MIC); settings: unit assumed
Protocol: as §1

[6] = system: Haemophilus influenzae R252; assay: standard agar-dilution assay (MIC); settings: Haemophilus influenzae R252, ampicillin-resistant strain, unit assumed
Protocol: as §1

Streptococcus Group 9960 = assay: standard agar-dilution assay (MIC); settings: unit assumed
Protocol: as §1

[7] = system: Staphylococcus epidermidis EPI1; assay: standard agar-dilution assay (MIC); settings: unit assumed
Protocol: as §1

[8] = system: Staphylococcus epidermidis EPI2; assay: standard agar-dilution assay (MIC); settings: unit assumed
Protocol: as §1

[9] = system: Pasteurella multocida 60A; assay: conventional broth-dilution microtiter test (MIC); settings: avian isolate, unit assumed
Protocol: as §1

Streptococcus sp. 80 = assay: conventional broth-dilution microtiter test (MIC); settings: unit assumed
Protocol: as §1

Mycoplasma gallisepticum = assay: conventional broth-dilution microtiter test (MIC); settings: unit assumed
Protocol: as §1

[10] = system: Pasteurella multocida 17E; assay: conventional broth-dilution microtiter test (MIC); settings: bovine isolate, unit assumed
Protocol: as §1

Mycoplasma hyorhinis = assay: conventional broth-dilution microtiter test (MIC); settings: unit assumed
Protocol: as §1

Mycoplasma synoviae = assay: conventional broth-dilution microtiter test (MIC); settings: unit assumed
Protocol: as §1

Staphylococcus aureus = assay: conventional broth-dilution microtiter test (MIC); settings: unit assumed
Protocol: as §1

[11] = system: Staphylococcus aureus V41; assay: standard agar-dilution assay (MIC); settings: Staphylococcus aureus V41, penicillin-resistant strain, unit assumed
Protocol: as §1
^b Penicillinresistant strain

[12] = system: Staphylococcus aureus X400; assay: standard agar-dilution assay (MIC); settings: Staphylococcus aureus X400, methicillin-resistant strain, unit assumed
Protocol: as §1
^c Methicillinresistant-strain

[13] = system: Streptococcus pneumoniae Park I; settings: agar dilution, unit assumed
Protocol: as §1

Row | SMILES | MIC [1] | MIC [2] | MIC [3] | MIC [4] | MIC [5] | MIC [6] | MIC (Streptococcus Group 9960) | MIC [7] | MIC [8] | MIC [9] | MIC (Streptococcus sp. 80) | MIC (Mycoplasma gallisepticum) | MIC [10] | MIC (Mycoplasma hyorhinis) | MIC (Mycoplasma synoviae) | MIC (Staphylococcus aureus) | MIC [11] | MIC [12] | MIC [13]
1 | CCC1OC(=O)CC(O)C(C)C(OC2OC(C)C(OC3CC(C)(O)C(O)C(C)O3)C(N(C)C)C2O)C(CC=O)CC(C)C(=O)C=CC(C)=CC1COC(=O)n1ccnc1 (stereo not shown) [Compound 22] | 16 µg/mL (≈ 19.1 µM) | 0.25 µg/mL (≈ 0.299 µM) | 0.5 µg/mL (≈ 0.598 µM) | 0.5 µg/mL (≈ 0.598 µM) | 1 µg/mL (≈ 1.2 µM) | 8 µg/mL (≈ 9.57 µM) | 0.5 µg/mL (≈ 0.598 µM) | 0.5 µg/mL (≈ 0.598 µM) | 0.5 µg/mL (≈ 0.598 µM) | 25 µg/mL (≈ 29.9 µM) | 1.56 µg/mL (≈ 1.87 µM) | 3.12 µg/mL (≈ 3.73 µM) | 12.5 µg/mL (≈ 15 µM) | 1.56 µg/mL (≈ 1.87 µM) | 1.56 µg/mL (≈ 1.87 µM) | 6.25 µg/mL (≈ 7.48 µM) | 1 µg/mL (≈ 1.2 µM) | 1 µg/mL (≈ 1.2 µM) | 
2 | CCC1OC(=O)CC(O)C(C)C(OC2OC(C)C(OC3CC(C)(O)C(O)C(C)O3)C(N(C)C)C2OC(C)=O)C(CC=O)CC(C)C(=O)C=CC(C)=CC1COC(=O)Cc1ccc([N+](=O)[O-])cc1 (stereo not shown) [Compound 15, 2'-O-Acetyl-23-O-(p-nitrophenylacetyl)-DMT] | 8 µg/mL (≈ 8.45 µM) | 0.125 µg/mL (≈ 0.132 µM) | 0.25 µg/mL (≈ 0.264 µM) | 0.25 µg/mL (≈ 0.264 µM) | 0.25 µg/mL (≈ 0.264 µM) | 4 µg/mL (≈ 4.22 µM) | 0.25 µg/mL (≈ 0.264 µM) | 0.5 µg/mL (≈ 0.528 µM) | 0.5 µg/mL (≈ 0.528 µM) | 6.25 µg/mL (≈ 6.6 µM) | 0.39 µg/mL (≈ 0.412 µM) | 0.39 µg/mL (≈ 0.412 µM) | 3.12 µg/mL (≈ 3.29 µM) | 0.78 µg/mL (≈ 0.824 µM) | < 0.05 µg/mL | 1.56 µg/mL (≈ 1.65 µM) | 0.5 µg/mL (≈ 0.528 µM) | 0.5 µg/mL (≈ 0.528 µM) | 
3 | CCC(=O)OCC1C=C(C)C=CC(=O)C(C)CC(CC=O)C(OC2OC(C)C(OC3CC(C)(O)C(O)C(C)O3)C(N(C)C)C2OC(C)=O)C(C)C(O)CC(=O)OC1CC (stereo not shown) [Compound 5, 2'-O-Acetyl-23-O-propionyl DMT] | 16 µg/mL (≈ 19 µM) | 0.5 µg/mL (≈ 0.595 µM) | 1 µg/mL (≈ 1.19 µM) | 0.5 µg/mL (≈ 0.595 µM) | 1 µg/mL (≈ 1.19 µM) | 32 µg/mL (≈ 38.1 µM) | 1 µg/mL (≈ 1.19 µM) | 1 µg/mL (≈ 1.19 µM) | 1 µg/mL (≈ 1.19 µM) | 12.5 µg/mL (≈ 14.9 µM) | ≤ 0.78 µg/mL | ≤ 0.024 µg/mL | 6.25 µg/mL (≈ 7.44 µM) | 1.56 µg/mL (≈ 1.86 µM) | 0.097 µg/mL (≈ 0.115 µM) |  | 0.5 µg/mL (≈ 0.595 µM) | 1 µg/mL (≈ 1.19 µM) | 0.5 µg/mL (≈ 0.595 µM)
4 | CCC1OC(=O)CC(O)C(C)C(OC2OC(C)C(OC3CC(C)(O)C(O)C(C)O3)C(N(C)C)C2O)C(CC=O)CC(C)C(=O)C=CC(C)=CC1COC(=O)NCCCO (stereo not shown) [Compound 26] | 16 µg/mL (≈ 19 µM) | 0.25 µg/mL (≈ 0.297 µM) | 4 µg/mL (≈ 4.74 µM) | 1 µg/mL (≈ 1.19 µM) | 2 µg/mL (≈ 2.37 µM) |  | 2 µg/mL (≈ 2.37 µM) | 1 µg/mL (≈ 1.19 µM) | 2 µg/mL (≈ 2.37 µM) | 12.5 µg/mL (≈ 14.8 µM) | 0.39 µg/mL (≈ 0.463 µM) | 0.78 µg/mL (≈ 0.925 µM) | 6.25 µg/mL (≈ 7.41 µM) | 6.25 µg/mL (≈ 7.41 µM) | 0.39 µg/mL (≈ 0.463 µM) | 1.56 µg/mL (≈ 1.85 µM) | 2 µg/mL (≈ 2.37 µM) | 4 µg/mL (≈ 4.74 µM) | 0.125 µg/mL (≈ 0.148 µM)
5 | CCC1OC(=O)CC(O)C(C)C(OC2OC(C)C(OC3CC(C)(O)C(O)C(C)O3)C(N(C)C)C2OC(C)=O)C(CC=O)CC(C)C(=O)C=CC(C)=CC1COC(=O)NCc1ccccc1 (stereo not shown) [Compound 30] | 8 µg/mL (≈ 8.72 µM) | 0.5 µg/mL (≈ 0.545 µM) | 0.5 µg/mL (≈ 0.545 µM) | 0.5 µg/mL (≈ 0.545 µM) | 0.5 µg/mL (≈ 0.545 µM) | 4 µg/mL (≈ 4.36 µM) | 0.5 µg/mL (≈ 0.545 µM) | 0.5 µg/mL (≈ 0.545 µM) | 0.5 µg/mL (≈ 0.545 µM) | 12.5 µg/mL (≈ 13.6 µM) | 0.78 µg/mL (≈ 0.851 µM) | 0.39 µg/mL (≈ 0.425 µM) |  | 1.56 µg/mL (≈ 1.7 µM) | 0.78 µg/mL (≈ 0.851 µM) |  | 1 µg/mL (≈ 1.09 µM) | 0.5 µg/mL (≈ 0.545 µM) | 
6 | CCC1OC(=O)CC(O)C(C)C(OC2OC(C)C(OC3CC(C)(O)C(O)C(C)O3)C(N(C)C)C2OC(C)=O)C(CC=O)CC(C)C(=O)C=CC(C)=CC1COC(=O)C(Cl)(Cl)Cl (stereo not shown) [Compound 16] | 2 µg/mL (≈ 2.15 µM) | 0.5 µg/mL (≈ 0.538 µM) | 1 µg/mL (≈ 1.08 µM) | 1 µg/mL (≈ 1.08 µM) | 1 µg/mL (≈ 1.08 µM) | 2 µg/mL (≈ 2.15 µM) | 1 µg/mL (≈ 1.08 µM) | 1 µg/mL (≈ 1.08 µM) | 4 µg/mL (≈ 4.3 µM) | 12.5 µg/mL (≈ 13.5 µM) | 0.39 µg/mL (≈ 0.42 µM) | 0.39 µg/mL (≈ 0.42 µM) | 6.25 µg/mL (≈ 6.73 µM) | 3.12 µg/mL (≈ 3.36 µM) |  | 1.56 µg/mL (≈ 1.68 µM) | 2 µg/mL (≈ 2.15 µM) | 4 µg/mL (≈ 4.3 µM) | 0.03 µg/mL (≈ 0.0323 µM)
7 | CCC1OC(=O)CC(O)C(C)C(OC2OC(C)C(OC3CC(C)(O)C(O)C(C)O3)C(N(C)C)C2OC(C)=O)C(CC=O)CC(C)C(=O)C=CC(C)=CC1COC(=O)COc1ccccc1 (stereo not shown) [Compound 12, 2'-O-Acetyl-23-O-phenoxyacetyl-DMT] | 16 µg/mL (≈ 17.4 µM) | 0.125 µg/mL (≈ 0.136 µM) | 0.5 µg/mL (≈ 0.545 µM) | 0.25 µg/mL (≈ 0.272 µM) | 0.5 µg/mL (≈ 0.545 µM) | 8 µg/mL (≈ 8.71 µM) | 0.5 µg/mL (≈ 0.545 µM) | 0.5 µg/mL (≈ 0.545 µM) | 0.5 µg/mL (≈ 0.545 µM) | 6.25 µg/mL (≈ 6.81 µM) | 0.195 µg/mL (≈ 0.212 µM) | 0.097 µg/mL (≈ 0.106 µM) | 6.25 µg/mL (≈ 6.81 µM) | 6.25 µg/mL (≈ 6.81 µM) | 0.78 µg/mL (≈ 0.85 µM) | 0.39 µg/mL (≈ 0.425 µM) | 0.25 µg/mL (≈ 0.272 µM) | 0.5 µg/mL (≈ 0.545 µM) | 
